According to US11440947B2, “Peptides and combination of peptides for use in immunotherapy against various tumors” (Immatics Biotechnologies GmbH, priority 2015, dated 2022):

Assays:
CD8+ T cells = assay: In vitro immunogenicity: in vitro T-cell priming with aAPCs loaded with peptide/MHC complexes and anti-CD28, pMHC multimer readout; type: cell-based, human; settings: for Wells positive [%]: HLA-A*02 restricted peptides, percentage of positive wells among evaluable; for donors: percentage of positive donors
Source text: In order to obtain information regarding the immunogenicity of the TUMAPs of the present invention, the inventors performed investigations using an in vitro T-cell priming assay based on repeated stimulations of CD8+ T cells with artificial antigen presenting cells (aAPCs) loaded with peptide/MHC complexes and anti-CD28 antibody.
In order to perform in vitro stimulations by artificial antigen presenting cells loaded with peptide-MHC complex (pMHC) and anti-CD28 antibody, the inventors first isolated CD8+ T cells from fresh HLA-A*02 leukapheresis products via positive selection using CD8 microbeads (Miltenyi Biotec, Bergisch-Gladbach, Germany) of healthy donors obtained from the University clinics Mannheim, Germany, after informed consent. PBMCs and isolated CD8+ lymphocytes were incubated in T-cell medium (TCM) until use consisting of RPMI-Glutamax (Invitrogen, Karlsruhe, Germany) supplemented with 10% heat inactivated human AB serum (PAN-Biotech, Aidenbach, Germany), 100 U/ml Penicillin/100 μg/ml Streptomycin (Cambrex, Cologne, Germany), 1 mM sodium pyruvate (CC Pro, Oberdorla, Germany), 20 μg/ml Gentamycin (Cambrex). 2.5 ng/ml IL-7 (PromoCell, Heidelberg, Germany) and 10 U/ml IL-2 (Novartis Pharma, Nürnberg, Germany) were also added to the TCM at this step. Generation of pMHC/anti-CD28 coated beads, T-cell stimulations and readout was performed in a highly defined in vitro system using four different pMHC molecules per stimulation condition and 8 different pMHC molecules per readout condition.
The purified co-stimulatory mouse IgG2a anti human CD28 Ab 9.3 (Jung et al., 1987) was chemically biotinylated using Sulfo-N-hydroxysuccinimidobiotin as recommended by the manufacturer (Perbio, Bonn, Germany). Beads used were 5.6 μm diameter streptavidin coated polystyrene particles (Bangs Laboratories, Illinois, USA).
pMHC used for positive and negative control stimulations were A*0201/MLA-001 (peptide […] (SEQ ID NO. 289) from modified Melan-A/MART-1) and A*0201/DDX5-001 ([…] from DDX5, SEQ ID NO. 290), respectively.
800.000 beads/200 μl were coated in 96-well plates in the presence of 4×12.5 ng different biotin-pMHC, washed and 600 ng biotin anti-CD28 were added subsequently in a volume of 200 μl. Stimulations were initiated in 96-well plates by co-incubating […] CD8+ T cells with 2×10^5 washed coated beads in 200 μl TCM supplemented with 5 ng/ml IL-12 (PromoCell) for 3 days at 37° C. Half of the medium was then exchanged by fresh TCM supplemented with 80 U/ml IL-2 and incubating was continued for 4 days at 37° C. This stimulation cycle was performed for a total of three times. For the pMHC multimer readout using 8 different pMHC molecules per condition, a two-dimensional combinatorial coding approach was used as previously described (Andersen et al., 2012) with minor modifications encompassing coupling to 5 different fluorochromes. Finally, multimeric analyses were performed by staining the cells with Live/dead near IR dye (Invitrogen, Karlsruhe, Germany), CD8-FITC antibody clone SK1 (BD, Heidelberg, Germany) and fluorescent pMHC multimers. For analysis, a BD LSRII SORP cytometer equipped with appropriate lasers and filters was used. Peptide specific cells were calculated as percentage of total CD8+ cells. Evaluation of multimeric analysis was done using the FlowJo software (Tree Star, Oreg., USA). In vitro priming of specific multimer+CD8+ lymphocytes was detected by comparing to negative control stimulations.
Exemplary flow cytometry results after TUMAP-specific multimer staining for 15 peptides of the invention are shown in FIGS. 3 and 6 together with corresponding negative controls.

HLA-A*02:01 = HLA-A*02:01 (Homo sapiens, UniProt P04439, D140Y/D185E/D98H/E176V/E277Q/G131W/G231S/I119V/I121R/I166T/I218V/L300P/L318F/N151K/N90K/P208A/P217A/Q86G/Q94H/R138H/R169H/T345S); assay: MHC binding assay: UV-ligand exchange, ELISA on beta2m of stabilized MHC complexes (peptide exchange yield); settings: binding to HLA-A*02:01, UV-ligand exchange, β2m ELISA
Source text: Candidate peptides for T cell based therapies according to the present invention were further tested for their MHC binding capacity (affinity). The individual peptide-MHC complexes were produced by UV-ligand exchange, where a UV-sensitive peptide is cleaved upon UV-irradiation, and exchanged with the peptide of interest as analyzed. Only peptide candidates that can effectively bind and stabilize the peptide-receptive MHC molecules prevent dissociation of the MHC complexes. To determine the yield of the exchange reaction, an ELISA was performed based on the detection of the light chain (β2m) of stabilized MHC complexes. The assay was performed as generally described in Rodenko et al. (Rodenko et al., 2006).
96 well MAXISorp plates (NUNC) were coated over night with 2 ug/ml streptavidin in PBS at room temperature, washed 4× and blocked for 1 h at 37° C. in 2% BSA containing blocking buffer. Refolded HLA-A*02:01/MLA-001 monomers served as standards, covering the range of 15-500 ng/ml. Peptide-MHC monomers of the UV-exchange reaction were diluted 100 fold in blocking buffer. Samples were incubated for 1 h at 37° C., washed four times, incubated with 2 ug/ml HRP conjugated anti-β2m for 1 h at 37° C., washed again and detected with TMB solution that is stopped with […]. Absorption was measured at 450 nm. Candidate peptides that show a high exchange yield (preferably higher than 50%, most preferred higher than 75%) are generally preferred for a generation and production of antibodies or fragments thereof, and/or T cell receptors or fragments thereof, as they show sufficient avidity to the MHC molecules and prevent dissociation of the MHC complexes.

[1] = CD8+ T cells of healthy HLA-A*02 donors, three stimulation cycles, multimer staining

Substance | Wells positive [%] (CD8+ T cells) | further results
35 (VIIKGLEEI; listed as Homo sapiens) [compound 35] | + (<20% = +) | –
255 (FLMKNSDLYGA; listed as Homo sapiens) [compound 255] | + (<20% = +) | –
77 (ALYGNVQQV; listed as Homo sapiens) [compound 77] | + (<20% = +) | –
257 (KLIDHQGLYL; listed as Homo sapiens) [compound 257] | + (<20% = +) | –
254 (ALGDKFLLRV; listed as Homo sapiens) [compound 254] | + (<20% = +) | –
267 (YLLDMPLWYL; listed as Homo sapiens) [compound 267] | + (<20% = +) | –
6 (FLNAIETAL; listed as Homo sapiens) [compound 6] | – | Peptide exchange (MHC class I binding score, peptide exchange yield) (HLA-A*02:01): ++++ (>75% = ++++)
1 (KLQEKIQEL; listed as Homo sapiens) [compound 1] | – | Peptide exchange (MHC class I binding score, peptide exchange yield) (HLA-A*02:01): ++++ (>75% = ++++)
92 (RLFEEVLGV; listed as Homo sapiens) [compound 92] | – | Peptide exchange (MHC class I binding score, peptide exchange yield) (HLA-A*02:01): ++++ (>75% = ++++)
121 (ALYVQAPTV; listed as Homo sapiens) [compound 121] | + (<20% = +) | –
242 (KLQEEIPVL; listed as Homo sapiens) [compound 242] | + (<20% = +) | –
178 (SLVSWQLLL; listed as Homo sapiens) [compound 178] | – | Peptide exchange (MHC class I binding score, peptide exchange yield) (HLA-A*02:01): ++++ (>75% = ++++)
29 (KMISAIPTL; listed as Homo sapiens) [compound 29] | + (<20% = +) | –
161 (NLLDENVCL; listed as Homo sapiens) [compound 161] | – | Peptide exchange (MHC class I binding score, peptide exchange yield) (HLA-A*02:01): ++++ (>75% = ++++)
17 (GLLPSAESIKL; listed as Homo sapiens) [compound 17] | + (<20% = +) | Peptide exchange (MHC class I binding score, peptide exchange yield) (HLA-A*02:01): ++++ (>75% = ++++)
234 (VLLNEILEQV; listed as Homo sapiens) [compound 234] | – | Peptide exchange (MHC class I binding score, peptide exchange yield) (HLA-A*02:01): ++++ (>75% = ++++)
264 (TLHDQVHLL; listed as Homo sapiens) [compound 264] | + (<20% = +) | –
9 (SLITGQDLLSV; listed as Homo sapiens) [compound 9] | + (<20% = +) | –
101 (SLLEVNEASSV; listed as Homo sapiens) [compound 101] | + (<20% = +) | –
89 (SLAETIFIV; listed as Homo sapiens) [compound 89] | + (<20% = +) | –

Substance | Wells positive [%] (CD8+ T cells) | further results
263 (SIIEYLPTL; listed as Homo sapiens) [compound 263] | + (<20% = +) | –
66 (AMFPDTIPRV; listed as Homo sapiens) [compound 66] | + (<20% = +) | –
34 (TLNTLDINL; listed as Homo sapiens) [compound 34] | ++++ (>=70% = ++++) | –
27 (GLLGKVTSV; listed as Homo sapiens) [compound 27] | + (<20% = +) | –
288 (SLYKGLLSV; listed as Homo sapiens) [compound 288] | – | donors (CD8+ T cells; [1]): ++++ (>= 70% = ++++)
97 (KLFEKSTGL; listed as Homo sapiens) [compound 97] | + (<20% = +) | –
4 (VLFGELPAL; listed as Homo sapiens) [compound 4] | + (<20% = +) | –
14 (YTFSGDVQL; listed as Homo sapiens) [compound 14] | + (<20% = +) | –
269 (GLLDCPIFL; listed as Homo sapiens) [compound 269] | – | Peptide exchange (MHC class I binding score, peptide exchange yield) (HLA-A*02:01): ++++ (>75% = ++++)
157 (ILQDGQFLV; listed as Homo sapiens) [compound 157] | + (<20% = +) | –
39 (YLEDGFAYV; listed as Homo sapiens) [compound 39] | ++++ (>=70% = ++++) | –
206 (GLDAFRIFL; listed as Homo sapiens) [compound 206] | – | Peptide exchange (MHC class I binding score, peptide exchange yield) (HLA-A*02:01): ++++ (>75% = ++++)
84 (FLLEREQLL; listed as Homo sapiens) [compound 84] | – | Peptide exchange (MHC class I binding score, peptide exchange yield) (HLA-A*02:01): ++++ (>75% = ++++)
102 (GLYPVTLVGV; listed as Homo sapiens) [compound 102] | + (<20% = +) | –
260 (ALNESLVEC; listed as Homo sapiens) [compound 260] | + (<20% = +) | –
236 (KMSELQTYV; listed as Homo sapiens) [compound 236] | + (<20% = +) | –
50 (ILLSVLHQL; listed as Homo sapiens) [compound 50] | + (<20% = +) | –
246 (ALAGIVTNV; listed as Homo sapiens) [compound 246] | + (<20% = +) | –
233 (SLFESLEYL; listed as Homo sapiens) [compound 233] | + (<20% = +) | –
287 (KIQEILTQV; listed as Homo sapiens) [compound 287] | – | donors (CD8+ T cells; [1]): +++ (50%-69%- +++); wells (CD8+ T cells; percentage of positive wells, CD8+ T cells of healthy HLA-A*02 donors, three stimulation cycles, multimer staining): + (<20% = +)
